melting point: 156 to 158 °C
SMILES: CNc1cc(C2=NOC(c3cc(Cl)cc(Cl)c3)(C(F)(F)F)C2)ccc1C(=O)NCC(F)(F)F (stereo not shown)
